Source: patent US10300056B2, “CGRP receptor antagonists” (Heptares Therapeutics Limited, priority 2015, dated 2019)

Key:
[1] = target: CGRP receptor ectodomain complex (Homo sapiens (Human), UniProt O60894+Q16602); experiment: Receptor kinetic profiling by surface plasmon resonance (Biacore T200); details: dissociation half-life, SPR, 25° C.
Protocol: Kinetic analyses were run on a Biacore T200 instrument (GE Healthcare Bio-Sciences AB, Uppsala, Sweden) at 25° C. using 0.05 mM EDTA, PBS (10 mM phosphate buffer, 2.7 mM KCl, 137 mM NaCl) pH 7.4, 0.005% v/v Surfactant P20, 5% DMSO as the running buffer. […] The chip was loaded with Ni^2+ and carboxyl groups of the dextran matrix were activated by EDC/NHS. The receptor ectodomain complex (100 nM in running buffer) was then injected and immobilised via the His-tag and amino groups. Two fold dilution series of each compound (five concentrations, in the range 25-40 nM) were injected. Blank-subtracted data were fitted to a 1:1 interaction model to obtain kinetic parameters which are expressed in Table 4 as dissociation half-life (t1/2=(ln 2/off-rate (kd)/60).

[2] = at 24 h after intravenous infusion of a 2.5 mg dose; cited from earlier work
[3] = target: CGRP receptor (Homo sapiens (Human), UniProt O60894+Q16602); details: in words, literature; cited from earlier work
Sequence of CGRP receptor (Q16602 23-461): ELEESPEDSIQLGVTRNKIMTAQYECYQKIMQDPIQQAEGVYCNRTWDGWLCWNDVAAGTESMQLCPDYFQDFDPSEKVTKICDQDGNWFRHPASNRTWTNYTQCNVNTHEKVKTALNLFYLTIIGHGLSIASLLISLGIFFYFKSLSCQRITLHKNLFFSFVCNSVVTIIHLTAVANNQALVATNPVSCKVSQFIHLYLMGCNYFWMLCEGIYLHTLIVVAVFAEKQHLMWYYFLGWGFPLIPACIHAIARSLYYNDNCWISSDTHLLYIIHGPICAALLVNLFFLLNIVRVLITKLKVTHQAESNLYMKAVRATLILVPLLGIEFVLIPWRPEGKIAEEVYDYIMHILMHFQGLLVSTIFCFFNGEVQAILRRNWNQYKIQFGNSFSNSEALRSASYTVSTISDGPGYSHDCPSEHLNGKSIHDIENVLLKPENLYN
Sequence of CGRP receptor (O60894 27-148): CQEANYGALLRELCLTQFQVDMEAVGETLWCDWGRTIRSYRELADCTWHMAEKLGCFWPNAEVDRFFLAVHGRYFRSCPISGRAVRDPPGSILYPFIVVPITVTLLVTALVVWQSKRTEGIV

Sequence of CGRP receptor ectodomain complex (Q16602 23-139): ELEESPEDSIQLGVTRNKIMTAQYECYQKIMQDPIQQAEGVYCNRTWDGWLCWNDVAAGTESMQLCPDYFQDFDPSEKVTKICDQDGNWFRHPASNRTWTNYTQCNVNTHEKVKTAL
Sequence of CGRP receptor ectodomain complex (O60894 27-118): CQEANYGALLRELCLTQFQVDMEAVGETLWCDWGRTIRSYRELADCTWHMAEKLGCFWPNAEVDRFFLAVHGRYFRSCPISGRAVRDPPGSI

NCCCC[C@H](NC(=O)[C@@H](Cc1cc(Br)c(O)c(Br)c1)NC(=O)N1CCC(N2Cc3ccccc3NC2=O)CC1)C(=O)N1CCN(c2ccncc2)CC1 [olcegepant]
CGRP t1/2 [1]: 30 min | headache-free rate [2]: 47% | kinetics at the CGRP receptor [3]: slow kinetics
